Common to all, as to assay: relative viability (nuclei count vs DMSO), 5 days (fraction); higher = more cells survive
Compound in assay [1]: CC(C)=CC[C@@H](O)C1=CC(=O)c2c(O)ccc(O)c2C1=O [Shikonin] + CS(=O)(=O)CCNCc1ccc(-c2ccc3ncnc(Nc4ccc(OCc5cccc(F)c5)c(Cl)c4)c3c2)o1 [Lapatinib] (partner 2 µM)
In short, it runs like this:
(§1)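 One day after seeding in 1536-well plates, lung cancer cell lines were dosed by pin tool. Dosing was either single-drug or a fixed anchor-drug dose plus five library-drug doses (not always all listed) in √10 steps. After 5 days, nuclei were stained in one fix-and-stain step and counted on 4× images, and relative viability is the nuclei count of treated wells over that of vehicle wells, given as the median of duplicate plates.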

Compound in assay [2]: CC(C)N(CCCNC(=O)Nc1ccc(C(C)(C)C)cc1)C[C@H]1O[C@@H](n2ccc3c(N)ncnc32)[C@H](O)[C@@H]1O + C[C@@H](Oc1cc(-c2cnn(C3CCNCC3)c2)cnc1N)c1c(Cl)ccc(F)c1Cl [Crizotinib] (partner 1 µM)
An outline of the steps:
as §1

Compound in assay [3]: CC(C)N(CCCNC(=O)Nc1ccc(C(C)(C)C)cc1)C[C@H]1O[C@@H](n2ccc3c(N)ncnc32)[C@H](O)[C@@H]1O + Nc1ncn([C@H]2C[C@H](O)[C@@H](CO)O2)c(=O)n1 [Decitabine] (partner 2 µM)
In short, it runs like this: as §1

Compound in assay [4]: CC(C)N(CCCNC(=O)Nc1ccc(C(C)(C)C)cc1)C[C@H]1O[C@@H](n2ccc3c(N)ncnc32)[C@H](O)[C@@H]1O + O=C(c1cc(Cc2n[nH]c(=O)c3ccccc23)ccc1F)N1CCN(C(=O)C2CC2)CC1 [Olaparib] (partner 8 µM)
An outline of the steps:
as §1

Turning to NCI-H1650, the relative viability in assay [1] (first compound 0.01 µM) worked out at 0.758; in assay [1] (first compound 0.1 µM), 0.819; in assay [1] (first compound 0.3162 µM), 0.684; in assay [1] (first compound 1 µM), 0.757; in assay [2] (first compound 0.08 µM), 0.925; in assay [2] (first compound 0.253 µM), 1.05. The relative viability in assay [2] (first compound 2.53 µM) turned out to be 1.06; in assay [2] (first compound 8 µM), 0.986; in assay [3] (first compound 0.08 µM), 0.368; in assay [3] (first compound 0.253 µM) it was 0.482; in assay [3] (first compound 0.8 µM) it was 0.262; in assay [3] (first compound 2.53 µM), 0.432. The relative viability was determined as 0.357 in assay [3] (first compound 8 µM); 0.662 in assay [4] (first compound 0.08 µM); 0.922 in assay [4] (first compound 0.253 µM); 0.805 in assay [4] (first compound 0.8 µM); 0.642 in assay [4] (first compound 2.53 µM); 0.754 in assay [4] (first compound 8 µM).

Take NCI-H1651: the relative viability in assay [1] (first compound 0.01 µM) was 0.714; in assay [1] (first compound 0.1 µM), 0.925; in assay [1] (first compound 0.3162 µM) it was 0.919; in assay [1] (first compound 1 µM), 0.844; in assay [2] (first compound 0.08 µM) it was 0.838; in assay [2] (first compound 0.253 µM), 0.836. In addition, the relative viability in assay [2] (first compound 0.8 µM) was determined as 0.859; in assay [2] (first compound 2.53 µM), 0.824; in assay [2] (first compound 8 µM), 0.876; in assay [3] (first compound 0.08 µM), 0.611; in assay [3] (first compound 0.253 µM), 0.534; in assay [3] (first compound 0.8 µM) it was 0.589. The relative viability in assay [3] (first compound 2.53 µM) is 0.611; in assay [3] (first compound 8 µM) it was 0.539; in assay [4] (first compound 0.08 µM) it was 0.174; in assay [4] (first compound 0.253 µM) it was 0.197; in assay [4] (first compound 0.8 µM) it was 0.17; in assay [4] (first compound 2.53 µM), 0.185. For the same cell line, the relative viability in assay [4] (first compound 8 µM) was found to be 0.173.

Regarding NCI-H1666, the relative viability in assay [1] (first compound 0.01 µM) came out at 0.585; in assay [1] (first compound 0.1 µM) it was 0.779; in assay [1] (first compound 0.3162 µM) it was 0.657; in assay [1] (first compound 1 µM) it was 0.853; in assay [2] (first compound 0.08 µM), 1.02; in assay [2] (first compound 0.253 µM) it was 0.983. Moreover, the relative viability in assay [2] (first compound 0.8 µM) came to 0.953; in assay [2] (first compound 2.53 µM) it was 1.02; in assay [2] (first compound 8 µM) it was 0.76; in assay [3] (first compound 0.08 µM), 0.722; in assay [3] (first compound 0.253 µM) it was 0.697; in assay [3] (first compound 0.8 µM), 0.808. The relative viability in assay [3] (first compound 2.53 µM) came out at 0.832; in assay [3] (first compound 8 µM) it was 0.673; in assay [4] (first compound 0.08 µM), 0.704; in assay [4] (first compound 0.253 µM), 0.755; in assay [4] (first compound 0.8 µM), 0.828; in assay [4] (first compound 2.53 µM) it was 0.739. Besides, in assay [4] (first compound 8 µM), the relative viability worked out at 0.698.

As to NCI-H1734, the relative viability in assay [1] (first compound 0.01 µM) was 1.17; in assay [1] (first compound 0.1 µM), 1.25; in assay [1] (first compound 0.3162 µM) it was 1.02; in assay [1] (first compound 1 µM) it was 1.09; in assay [2] (first compound 0.08 µM), 0.644; in assay [2] (first compound 0.253 µM), 0.656. Also, the relative viability in assay [2] (first compound 0.8 µM) was determined as 0.728; in assay [2] (first compound 2.53 µM), 0.649; in assay [2] (first compound 8 µM), 0.605; in assay [3] (first compound 0.08 µM) it was 0.454; in assay [3] (first compound 0.253 µM) it was 0.495; in assay [3] (first compound 0.8 µM) it was 0.463. Besides, the relative viability was 0.545 in assay [3] (first compound 2.53 µM); 0.484 in assay [3] (first compound 8 µM); 0.574 in assay [4] (first compound 0.08 µM); 0.608 in assay [4] (first compound 0.253 µM); 0.539 in assay [4] (first compound 0.8 µM); 0.662 in assay [4] (first compound 2.53 µM). Further, the relative viability in assay [4] (first compound 8 µM) was found to be 0.529.

Turning to NCI-H1755, the relative viability in assay [1] (first compound 0.01 µM) is 1.13; in assay [1] (first compound 0.1 µM) it was 1.27; in assay [1] (first compound 0.3162 µM), 1.12; in assay [1] (first compound 1 µM) it was 1.09; in assay [2] (first compound 0.08 µM), 0.841; in assay [2] (first compound 0.253 µM), 0.9. For the same cell line, the relative viability came to 0.889 in assay [2] (first compound 0.8 µM); 0.832 in assay [2] (first compound 2.53 µM); 0.73 in assay [2] (first compound 8 µM); 0.787 in assay [3] (first compound 0.08 µM); 0.701 in assay [3] (first compound 0.253 µM); 0.666 in assay [3] (first compound 0.8 µM). Further, the relative viability in assay [3] (first compound 2.53 µM) was found to be 0.668; in assay [3] (first compound 8 µM), 0.714; in assay [4] (first compound 0.08 µM), 0.892; in assay [4] (first compound 0.253 µM) it was 0.902; in assay [4] (first compound 0.8 µM), 0.861; in assay [4] (first compound 2.53 µM), 0.828. Also, the relative viability in assay [4] (first compound 8 µM) stood at 0.793.

For the cell line NCI-H1792, the relative viability in assay [1] (first compound 0.01 µM) is 0.922; in assay [1] (first compound 0.1 µM) it was 1.06; in assay [1] (first compound 0.3162 µM), 0.968; in assay [1] (first compound 1 µM), 1.09; in assay [2] (first compound 0.08 µM), 0.975; in assay [2] (first compound 0.253 µM) it was 0.919. Further, the relative viability in assay [2] (first compound 0.8 µM) was 1.01; in assay [2] (first compound 2.53 µM), 0.915; in assay [2] (first compound 8 µM) it was 1.03; in assay [3] (first compound 0.08 µM), 0.527; in assay [3] (first compound 0.8 µM) it was 0.56; in assay [3] (first compound 2.53 µM), 0.529. Besides, the relative viability in assay [3] (first compound 8 µM) worked out at 0.607; in assay [4] (first compound 0.08 µM), 0.434; in assay [4] (first compound 0.8 µM), 0.365; in assay [4] (first compound 2.53 µM), 0.374; in assay [4] (first compound 8 µM), 0.399.

On to NCI-H1915, for which the relative viability amounted to 1.01 in assay [1] (first compound 0.01 µM); 1.18 in assay [1] (first compound 0.1 µM); 1 in assay [1] (first compound 0.3162 µM); 1.09 in assay [1] (first compound 1 µM); 0.937 in assay [2] (first compound 0.08 µM); 0.879 in assay [2] (first compound 0.253 µM). Moreover, the relative viability in assay [2] (first compound 0.8 µM) was determined as 0.768; in assay [2] (first compound 2.53 µM), 0.863; in assay [2] (first compound 8 µM), 0.793; in assay [3] (first compound 0.08 µM), 0.274; in assay [3] (first compound 0.253 µM) it was 0.289; in assay [3] (first compound 0.8 µM) it was 0.269. Moreover, the relative viability turned out to be 0.25 in assay [3] (first compound 2.53 µM); 0.267 in assay [3] (first compound 8 µM); 0.244 in assay [4] (first compound 0.08 µM); 0.288 in assay [4] (first compound 0.253 µM); 0.229 in assay [4] (first compound 0.8 µM); 0.236 in assay [4] (first compound 2.53 µM). The relative viability in assay [4] (first compound 8 µM) was determined as 0.23.
